Biological target: Isoform Bcl-X(L) of Bcl-2-like protein 1 (Bcl-xL) (Homo sapiens, UniProt Q07817)
Sequence (Q07817 whole entry G70A, canonical isoform): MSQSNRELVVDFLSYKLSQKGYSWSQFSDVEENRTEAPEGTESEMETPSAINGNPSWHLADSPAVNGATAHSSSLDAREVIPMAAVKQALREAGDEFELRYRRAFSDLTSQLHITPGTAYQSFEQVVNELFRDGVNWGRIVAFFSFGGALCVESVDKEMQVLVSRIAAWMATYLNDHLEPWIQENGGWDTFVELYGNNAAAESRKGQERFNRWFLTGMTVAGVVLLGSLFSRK

Compound	IC50 [nM]
O=C(NS(=O)(=O)c1cc([N+](=O)[O-])c2cnn(CC3CCOCC3)c2c1)c1ccc(N2CCN(CC3=C(c4ccc(Cl)cc4)CC4(CCC4)CC3)CC2)cc1Oc1cnc2[nH]ccc2c1 [US10221174, Compound 62]	4
O=C(NS(=O)(=O)c1cc([N+](=O)[O-])c2cnn(C3CCOCC3)c2c1)c1ccc(N2CCN(CC3=C(c4ccc(Cl)cc4)CC4(CCC4)CC3)CC2)cc1Oc1cnc2[nH]ccc2c1 [US10221174, Compound 64]	8.7

From BindingDB's records for patent US10221174 (University of Michigan, 2019)
